Measurements reported in patent US9896440B2, “Aryl substituted heterocyclyl sulfones” (GRÜNENTHAL GMBH, priority 2014, dated 2018).

Molecular target: T1, Human CaV2.2 channels (Homo sapiens, UniProt Q00975)
T1 construct: expressed in transfected cells; Kir2.3 also stably co-expressed
Assay: Fluorescence assay for CaV2.2 channels using potassium depolarization to induce channel opening (FLIPR, Fluo 4)
Type: cell-based
Details: 30 mM KCl assay buffer (inactivated channel state), HEK293 cells; for Activity Category: %-Inhib (CaV2.2) @3 μM @30 mM KCl: 3 μM test compound; for inhibition at 3 µM: HEK293, 3 μM test compound, read-out: Activity Category: %-Inhib (CaV2.2) @3 μM @30 mM KCl
Summary of the method: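 HEK293 cells stably co-expressing human CaV2.2 with α2δ and β subunits plus Kir2.3, Fluo-4 loaded; compounds preincubated 15 min at 25 °C in 1 mM or 30 mM KCl buffer (inactivated state), pH 7.4. Depolarized by KCl addition; baseline-normalized peak fluorescence (ex 480/em 535 nm) gave inhibition.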

T1 sequence (Q00975 whole entry): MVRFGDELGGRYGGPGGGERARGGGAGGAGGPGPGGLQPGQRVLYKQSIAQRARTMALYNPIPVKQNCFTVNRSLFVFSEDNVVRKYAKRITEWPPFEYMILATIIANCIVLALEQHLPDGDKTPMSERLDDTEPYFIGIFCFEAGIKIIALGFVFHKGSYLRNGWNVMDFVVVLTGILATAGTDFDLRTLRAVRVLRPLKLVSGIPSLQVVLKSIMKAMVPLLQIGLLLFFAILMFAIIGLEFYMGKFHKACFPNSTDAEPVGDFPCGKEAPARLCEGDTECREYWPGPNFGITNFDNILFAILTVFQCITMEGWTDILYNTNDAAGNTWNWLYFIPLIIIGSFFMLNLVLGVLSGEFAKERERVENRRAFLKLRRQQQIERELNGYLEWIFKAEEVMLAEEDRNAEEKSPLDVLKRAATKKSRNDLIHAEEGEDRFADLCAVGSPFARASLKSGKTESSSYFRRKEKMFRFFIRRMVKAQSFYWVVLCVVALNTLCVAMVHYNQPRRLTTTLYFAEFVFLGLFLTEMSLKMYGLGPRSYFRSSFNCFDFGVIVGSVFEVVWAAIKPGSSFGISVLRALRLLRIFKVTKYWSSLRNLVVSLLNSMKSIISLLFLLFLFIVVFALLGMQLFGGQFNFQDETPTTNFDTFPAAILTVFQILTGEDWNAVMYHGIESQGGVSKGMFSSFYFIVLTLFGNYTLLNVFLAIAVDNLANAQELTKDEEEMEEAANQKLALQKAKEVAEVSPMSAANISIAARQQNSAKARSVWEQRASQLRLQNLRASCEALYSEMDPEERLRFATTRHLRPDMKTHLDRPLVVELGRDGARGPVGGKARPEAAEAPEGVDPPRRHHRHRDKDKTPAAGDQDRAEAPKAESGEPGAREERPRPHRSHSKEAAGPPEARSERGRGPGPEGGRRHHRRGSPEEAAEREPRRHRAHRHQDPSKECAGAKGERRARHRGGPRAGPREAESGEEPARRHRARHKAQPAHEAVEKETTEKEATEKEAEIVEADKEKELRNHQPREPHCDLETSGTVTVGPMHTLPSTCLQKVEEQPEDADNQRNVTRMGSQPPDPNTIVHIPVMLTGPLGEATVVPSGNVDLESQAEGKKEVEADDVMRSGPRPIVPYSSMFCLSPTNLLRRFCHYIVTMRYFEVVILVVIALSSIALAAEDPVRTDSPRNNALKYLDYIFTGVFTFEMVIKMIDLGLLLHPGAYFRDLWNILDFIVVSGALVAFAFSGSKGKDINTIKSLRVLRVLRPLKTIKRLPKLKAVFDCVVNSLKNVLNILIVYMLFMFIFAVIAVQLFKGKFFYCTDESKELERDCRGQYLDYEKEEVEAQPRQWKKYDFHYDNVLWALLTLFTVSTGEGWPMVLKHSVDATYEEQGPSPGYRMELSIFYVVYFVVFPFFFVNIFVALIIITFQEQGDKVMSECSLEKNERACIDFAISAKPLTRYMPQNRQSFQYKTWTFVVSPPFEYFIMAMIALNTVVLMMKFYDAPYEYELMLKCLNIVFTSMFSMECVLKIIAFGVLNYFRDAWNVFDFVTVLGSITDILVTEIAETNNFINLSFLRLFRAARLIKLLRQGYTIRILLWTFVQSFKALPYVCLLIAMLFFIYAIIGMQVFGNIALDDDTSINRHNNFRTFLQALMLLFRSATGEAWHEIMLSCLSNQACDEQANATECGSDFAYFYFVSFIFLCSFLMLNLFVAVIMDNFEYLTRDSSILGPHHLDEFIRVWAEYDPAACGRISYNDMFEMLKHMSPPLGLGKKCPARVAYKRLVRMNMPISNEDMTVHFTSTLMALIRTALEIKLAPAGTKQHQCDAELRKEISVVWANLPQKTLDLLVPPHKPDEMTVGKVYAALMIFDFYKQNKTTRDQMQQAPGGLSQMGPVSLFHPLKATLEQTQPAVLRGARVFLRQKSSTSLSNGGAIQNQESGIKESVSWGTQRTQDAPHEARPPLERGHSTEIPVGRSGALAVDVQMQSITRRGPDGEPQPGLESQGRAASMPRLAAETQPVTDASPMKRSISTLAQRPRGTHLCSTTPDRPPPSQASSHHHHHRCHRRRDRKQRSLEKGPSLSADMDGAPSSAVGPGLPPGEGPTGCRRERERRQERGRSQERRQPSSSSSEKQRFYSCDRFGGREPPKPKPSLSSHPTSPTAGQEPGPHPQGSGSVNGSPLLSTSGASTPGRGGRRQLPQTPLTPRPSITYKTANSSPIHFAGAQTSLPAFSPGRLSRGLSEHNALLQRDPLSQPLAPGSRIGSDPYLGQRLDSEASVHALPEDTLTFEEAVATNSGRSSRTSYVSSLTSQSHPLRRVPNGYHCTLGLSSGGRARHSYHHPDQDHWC

Structure (SMILES) | Activity Category: %-Inhib (CaV2.2) @3 μM @30 mM KCl | inhibition at 3 µM [%]
CC1(S(=O)(=O)c2cccc(C(F)(F)F)c2)CCOC(c2ccc(C#N)c(S(C)(=O)=O)c2)C1 (stereo not shown) [SC-262, 2-Methylsulfonyl-4-[4-methyl-4-[[3-(trifluoromethyl)phenyl]sulfonyl]-tetrahydro-pyran-2-yl]-benzonitrile] | B (%-Inhibition >75% up to ≦95%) | 
CC1(S(=O)(=O)c2cccc(C(F)(F)F)c2)CCOC(c2ccc3c(c2)CCO3)C1 (stereo not shown) [SC-263, 5-[4-Methyl-4-[[3-(trifluoromethyl)phenyl]sulfonyl]-tetrahydro-pyran-2-yl]-2,3-dihydro-benzofuran] |  | > 95
CC1(S(=O)(=O)c2cccc(OC(F)(F)F)c2)CCOC(c2ccc(S(C)(=O)=O)c(F)c2)C1 (stereo not shown) [SC-265, 2-(3-Fluoro-4-methylsulfonyl-phenyl)-4-methyl-4-[[3-(trifluoromethyloxy)-phenyl]sulfonyl]-tetrahydro-pyran] |  | 75 to 95
CC1(S(=O)(=O)c2cccc(OC(F)(F)F)c2)CCOC(c2ccc(S(C)(=O)=O)c(F)c2)C1 (stereo not shown) [SC-266, 2-(3-Fluoro-4-methylsulfonyl-phenyl)-4-methyl-4-[[3-(trifluoromethyloxy)-phenyl]sulfonyl]-tetrahydro-pyran] | A (%-Inhibition >95%) | 
CC1(S(=O)(=O)c2cccc(C(F)(F)F)c2)CCOC(c2ccc(S(C)(=O)=O)c(C#N)c2)C1 (stereo not shown) [SC-267, 2-Methylsulfonyl-5-[4-methyl-4-[[3-(trifluoromethyl)phenyl]sulfonyl]-tetrahydro-pyran-2-yl]-benzonitrile] |  | > 95
CC1(S(=O)(=O)c2cccc(C(F)(F)F)c2)CCOC(c2ccc(S(C)(=O)=O)c(C#N)c2)C1 (stereo not shown) [SC-268, 2-Methylsulfonyl-5-[4-methyl-4-[[3-(trifluoromethyl)phenyl]sulfonyl]-tetrahydro-pyran-2-yl]-benzonitrile] | B (%-Inhibition >75% up to ≦95%) | 
CC1(S(=O)(=O)c2cccc(C(F)F)c2)CCOC(c2ccc(S(C)(=O)=O)c(F)c2)C1 (stereo not shown) [SC-269, 4-[[3-(Difluoro-methyl)-phenyl]sulfonyl]-2-(3-fluoro-4-methylsulfonyl-phenyl)-4-methyl-tetrahydro-pyran] | C (%-Inhibition >40% up to ≦75%) | 
CC1(S(=O)(=O)c2cccc(C(F)F)c2)CCOC(c2ccc(S(C)(=O)=O)c(F)c2)C1 (stereo not shown) [SC-270, 4-[[3-(Difluoro-methyl)-phenyl]sulfonyl]-2-(3-fluoro-4-methylsulfonyl-phenyl)-4-methyl-tetrahydro-pyran] | B (%-Inhibition >75% up to ≦95%) | 
CC(C)c1cccc(S(=O)(=O)C2(C)CCOC(c3ccc(S(C)(=O)=O)c(F)c3)C2)c1 (stereo not shown) [SC-271, 2-(3-Fluoro-4-methylsulfonyl-phenyl)-4-[(3-isopropyl-phenyl)sulfonyl]-4-methyl-tetrahydro-pyran] |  | > 95
CC1(S(=O)(=O)c2cccc(C(F)(F)F)c2)CCOC(c2cc(S(C)(=O)=O)ccc2C#N)C1 (stereo not shown) [SC-273, 4-Methylsulfonyl-2-[4-methyl-4-[[3-(trifluoromethyl)phenyl]sulfonyl]-tetrahydro-pyran-2-yl]-benzonitrile] |  | 75 to 95
CC1(S(=O)(=O)c2cccc(C(F)(F)F)c2)CCOC(c2ccc(S(C)(=O)=O)cc2C#N)C1 (stereo not shown) [SC-275, 5-Methylsulfonyl-2-[4-methyl-4-[[3-(trifluoromethyl)phenyl]sulfonyl]-tetrahydro-pyran-2-yl]-benzonitrile] |  | 75 to 95
CC1(S(=O)(=O)c2cccc(C(F)(F)F)c2)CCOC(c2ccc(S(C)(=O)=O)cc2C#N)C1 (stereo not shown) [SC-276, 5-Methylsulfonyl-2-[4-methyl-4-[[3-(trifluoromethyl)phenyl]sulfonyl]-tetrahydro-pyran-2-yl]-benzonitrile] | A (%-Inhibition >95%) | 
CC1(S(=O)(=O)c2cccc(C(F)(F)F)c2)CCOC(c2cc(S(C)(=O)=O)ccc2C2CC2)C1 (stereo not shown) [SC-277, 2-(2-Cyclopropyl-5-methylsulfonyl-phenyl)-4-methyl-4-[[3-(trifluoromethyl)phenyl]sulfonyl]-tetrahydro-pyran] |  | > 95
CC1(S(=O)(=O)c2cccc(C(F)(F)F)c2)CCOC(c2cc(S(C)(=O)=O)ccc2C2CC2)C1 (stereo not shown) [SC-278, 2-(2-Cyclopropyl-5-methylsulfonyl-phenyl)-4-methyl-4-[[3-(trifluoromethyl)phenyl]sulfonyl]-tetrahydro-pyran] | B (%-Inhibition >75% up to ≦95%) | 
Cc1nc2cc(C3CC(C)(S(=O)(=O)c4cccc(C(F)(F)F)c4)CCO3)ccc2o1 (stereo not shown) [SC-279, 2-Methyl-5-[4-methyl-4-[[3-(trifluoromethyl)phenyl]sulfonyl]-tetrahydro-pyran-2-yl]-benzooxazole] |  | 75 to 95
Cc1nc2cc(C3CC(C)(S(=O)(=O)c4cccc(C(F)(F)F)c4)CCO3)ccc2o1 (stereo not shown) [SC-280, 2-Methyl-5-[4-methyl-4-[[3-(trifluoromethyl)phenyl]sulfonyl]-tetrahydro-pyran-2-yl]-benzooxazole] | A (%-Inhibition >95%) | 

Structure (SMILES) | Activity Category: %-Inhib (CaV2.2) @3 μM @30 mM KCl | inhibition at 3 µM [%]
C[S+]([O-])c1ccc(C2CC(C)(S(=O)(=O)c3cccc(C(F)(F)F)c3)CCO2)c(F)c1 (stereo not shown) [SC-281, 2-[2-Fluoro-4-(methylsulfinyl)-phenyl]-4-methyl-4-[[3-(trifluoromethyl)phenyl]sulfonyl]-tetrahydro-pyran] | B (%-Inhibition >75% up to ≦95%) | 
C[S+]([O-])c1ccc(C2CC(C)(S(=O)(=O)c3cccc(C(F)(F)F)c3)CCO2)c(F)c1 (stereo not shown) [SC-282, 2-[2-Fluoro-4-(methylsulfinyl)-phenyl]-4-methyl-4-[[3-(trifluoromethyl)phenyl]sulfonyl]-tetrahydro-pyran] | B (%-Inhibition >75% up to ≦95%) | 
C[S+]([O-])c1ccc(C2CC(C)(S(=O)(=O)c3cccc(C(F)(F)F)c3)CCO2)c(F)c1 (stereo not shown) [SC-283, 2-[2-Fluoro-4-(methylsulfinyl)-phenyl]-4-methyl-4-[[3-(trifluoromethyl)phenyl]sulfonyl]-tetrahydro-pyran] | B (%-Inhibition >75% up to ≦95%) | 
C[S+]([O-])c1ccc(C2CC(C)(S(=O)(=O)c3cccc(C(F)(F)F)c3)CCO2)c(F)c1 (stereo not shown) [SC-284, 2-[2-Fluoro-4-(methylsulfinyl)-phenyl]-4-methyl-4-[[3-(trifluoromethyl)phenyl]sulfonyl]-tetrahydro-pyran] | C (%-Inhibition >40% up to ≦75%) | 
CCc1nc2cc(C3CC(C)(S(=O)(=O)c4cccc(C(F)(F)F)c4)CCO3)ccc2o1 (stereo not shown) [SC-285, 2-Ethyl-5-[4-methyl-4-[[3-(trifluoromethyl)phenyl]sulfonyl]-tetrahydro-pyran-2-yl]-benzooxazole] |  | 75 to 95
CC1(S(=O)(=O)c2cccc(C(F)(F)F)c2)CCOC(c2ccc(S(=O)(=O)CCO)cc2)C1 (stereo not shown) [SC-286, 2-[[4-[4-Methyl-4-[[3-(trifluoromethyl)phenyl]sulfonyl]-tetrahydro-pyran-2-yl]-phenyl]sulfonyl]-ethanol] |  | 75 to 95
C[S+]([O-])c1cc(Cl)ccc1C1CC(C)(S(=O)(=O)c2cccc(C(F)(F)F)c2)CCO1 (stereo not shown) [SC-288, 2-[4-Chloro-2-(methylsulfinyl)-phenyl]-4-methyl-4-[[3-(trifluoromethyl)phenyl]sulfonyl]-tetrahydro-pyran] | B (%-Inhibition >75% up to ≦95%) | 
C[S+]([O-])c1cc(Cl)ccc1C1CC(C)(S(=O)(=O)c2cccc(C(F)(F)F)c2)CCO1 (stereo not shown) [SC-289, 2-[4-Chloro-2-(methylsulfinyl)-phenyl]-4-methyl-4-[[3-(trifluoromethyl)phenyl]sulfonyl]-tetrahydro-pyran] | C (%-Inhibition >40% up to ≦75%) | 
C[S+]([O-])c1cc(Cl)ccc1C1CC(C)(S(=O)(=O)c2cccc(C(F)(F)F)c2)CCO1 (stereo not shown) [SC-290, 2-[4-Chloro-2-(methylsulfinyl)-phenyl]-4-methyl-4-[[3-(trifluoromethyl)phenyl]sulfonyl]-tetrahydro-pyran] | B (%-Inhibition >75% up to ≦95%) | 
C[S+]([O-])c1cc(Cl)ccc1C1CC(C)(S(=O)(=O)c2cccc(C(F)(F)F)c2)CCO1 (stereo not shown) [SC-291, 2-[4-Chloro-2-(methylsulfinyl)-phenyl]-4-methyl-4-[[3-(trifluoromethyl)phenyl]sulfonyl]-tetrahydro-pyran] | A (%-Inhibition >95%) | 
CC1(S(=O)(=O)c2cccc(C(F)(F)F)n2)CCOC(c2ccc(S(C)(=O)=O)cc2)C1 (stereo not shown) [SC-293, 2-[[4-Methyl-2-(4-methylsulfonyl-phenyl)-tetrahydro-pyran-4-yl]sulfonyl]-6-(trifluoromethyl)-pyridine] |  | 40 to 75
CC1(S(=O)(=O)c2cccc(C(F)(F)F)c2)CCOC(c2cc(S(C)(=O)=O)ccc2F)C1 (stereo not shown) [SC-294, 2-(2-Fluoro-5-methylsulfonyl-phenyl)-4-methyl-4-[[3-(trifluoromethyl)phenyl]sulfonyl]-tetrahydro-pyran] |  | 75 to 95
CC1(S(=O)(=O)c2cccc(C(F)(F)F)c2)CCOC(c2cc(F)cc(S(C)(=O)=O)c2)C1 (stereo not shown) [SC-296, 2-(3-Fluoro-5-methylsulfonyl-phenyl)-4-methyl-4-[[3-(trifluoromethyl)phenyl]sulfonyl]-tetrahydro-pyran] |  | 75 to 95
CC1(S(=O)(=O)c2cccc(C(F)(F)F)c2)CCOC(c2cc(F)cc(S(C)(=O)=O)c2)C1 (stereo not shown) [SC-297, 2-(3-Fluoro-5-methylsulfonyl-phenyl)-4-methyl-4-[[3-(trifluoromethyl)phenyl]sulfonyl]-tetrahydro-pyran] | A (%-Inhibition >95%) | 
CC1(C)CC(C)(S(=O)(=O)c2cccc(C(F)(F)F)c2)CC(c2ccc(Cl)cc2)O1 (stereo not shown) [SC-300, 6-(4-Chlorophenyl)-2,2,4-trimethyl-4-[[3-(trifluoromethyl)phenyl]sulfonyl]-tetrahydro-pyran] |  | > 95
